The source made the active and inactive calls. No rule for the calls is given here.
Experiments:
Experiment in all cases: kinase panel binding selectivity, selectivity assay, biochemical, KINOMEscan (AID 1982)
[1] = biological target: Casein kinase I isoform gamma-1 (Homo sapiens) (UniProt Q9HCP0); details: KINOMEscan 353-kinase binding panel, qPCR; CSNK1G1; at 10 µM; active compounds read low
[2] = biological target: Cyclin-dependent kinase 19 (Homo sapiens) (UniProt Q9BWU1); details: KINOMEscan 353-kinase binding panel, qPCR; CDK11; at 10 µM; active compounds read low
DMPK2 = details: KINOMEscan 353-kinase binding panel, qPCR, at 10 µM, active compounds read low
EPHB2 = details: KINOMEscan 353-kinase binding panel, qPCR, at 10 µM, active compounds read low
GCN2(Kin.Dom.2,S808G) = details: KINOMEscan 353-kinase binding panel, qPCR, at 10 µM, active compounds read low
[3] = biological target: MAP kinase-activated protein kinase 5 (Homo sapiens) (UniProt Q8IW41); details: KINOMEscan 353-kinase binding panel, qPCR; MAPKAPK5; at 10 µM; active compounds read low
PRKCE = details: KINOMEscan 353-kinase binding panel, qPCR, at 10 µM, active compounds read low
[4] = biological target: Tyrosine-protein kinase ITK/TSK (Homo sapiens) (UniProt Q08881); details: KINOMEscan 353-kinase binding panel, qPCR, at 10 µM, active compounds read low
ZAP70 = details: KINOMEscan 353-kinase binding panel, qPCR, at 10 µM, active compounds read low

Measured: percent of control binding

Sequence of Casein kinase I isoform gamma-1 (Homo sapiens) (Q9HCP0 whole entry, looked up, canonical isoform): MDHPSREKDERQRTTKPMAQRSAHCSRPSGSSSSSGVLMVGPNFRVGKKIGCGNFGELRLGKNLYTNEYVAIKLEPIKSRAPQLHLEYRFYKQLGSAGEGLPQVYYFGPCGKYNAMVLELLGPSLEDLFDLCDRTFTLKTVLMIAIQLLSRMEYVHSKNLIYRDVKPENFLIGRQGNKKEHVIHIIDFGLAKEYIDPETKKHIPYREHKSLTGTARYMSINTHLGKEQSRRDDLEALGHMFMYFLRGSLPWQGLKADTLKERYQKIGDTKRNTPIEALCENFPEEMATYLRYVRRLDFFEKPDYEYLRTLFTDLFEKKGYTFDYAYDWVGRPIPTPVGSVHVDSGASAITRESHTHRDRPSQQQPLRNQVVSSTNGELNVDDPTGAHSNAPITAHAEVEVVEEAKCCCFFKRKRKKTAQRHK
Sequence of Cyclin-dependent kinase 19 (Homo sapiens) (Q9BWU1 whole entry, looked up): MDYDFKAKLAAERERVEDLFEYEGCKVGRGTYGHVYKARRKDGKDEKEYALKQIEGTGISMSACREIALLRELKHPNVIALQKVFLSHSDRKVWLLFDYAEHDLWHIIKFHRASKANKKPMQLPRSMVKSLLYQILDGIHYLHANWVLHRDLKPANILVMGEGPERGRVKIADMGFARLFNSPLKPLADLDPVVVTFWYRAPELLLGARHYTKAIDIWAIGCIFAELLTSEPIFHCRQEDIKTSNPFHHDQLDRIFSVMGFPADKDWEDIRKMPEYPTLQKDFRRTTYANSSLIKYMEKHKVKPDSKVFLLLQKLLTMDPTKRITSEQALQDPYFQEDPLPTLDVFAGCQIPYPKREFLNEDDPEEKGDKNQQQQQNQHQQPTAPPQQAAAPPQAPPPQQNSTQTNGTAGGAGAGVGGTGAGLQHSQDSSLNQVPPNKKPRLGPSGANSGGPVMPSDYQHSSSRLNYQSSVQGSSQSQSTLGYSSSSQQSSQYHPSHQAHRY
Sequence of MAP kinase-activated protein kinase 5 (Homo sapiens) (Q8IW41 whole entry, looked up): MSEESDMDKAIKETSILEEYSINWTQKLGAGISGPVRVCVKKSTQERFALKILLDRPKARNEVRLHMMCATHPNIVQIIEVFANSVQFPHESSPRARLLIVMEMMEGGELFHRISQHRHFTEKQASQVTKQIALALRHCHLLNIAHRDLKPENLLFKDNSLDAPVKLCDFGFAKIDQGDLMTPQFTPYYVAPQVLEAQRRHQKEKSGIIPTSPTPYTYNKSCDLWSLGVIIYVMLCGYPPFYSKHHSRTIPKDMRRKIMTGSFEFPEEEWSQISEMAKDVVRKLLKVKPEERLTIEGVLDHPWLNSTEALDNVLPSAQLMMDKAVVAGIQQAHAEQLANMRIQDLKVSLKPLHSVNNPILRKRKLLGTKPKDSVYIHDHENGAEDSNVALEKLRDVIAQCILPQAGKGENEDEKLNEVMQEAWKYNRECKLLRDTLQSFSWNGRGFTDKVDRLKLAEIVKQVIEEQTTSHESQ
Sequence of Tyrosine-protein kinase ITK/TSK (Homo sapiens) (Q08881 whole entry, looked up): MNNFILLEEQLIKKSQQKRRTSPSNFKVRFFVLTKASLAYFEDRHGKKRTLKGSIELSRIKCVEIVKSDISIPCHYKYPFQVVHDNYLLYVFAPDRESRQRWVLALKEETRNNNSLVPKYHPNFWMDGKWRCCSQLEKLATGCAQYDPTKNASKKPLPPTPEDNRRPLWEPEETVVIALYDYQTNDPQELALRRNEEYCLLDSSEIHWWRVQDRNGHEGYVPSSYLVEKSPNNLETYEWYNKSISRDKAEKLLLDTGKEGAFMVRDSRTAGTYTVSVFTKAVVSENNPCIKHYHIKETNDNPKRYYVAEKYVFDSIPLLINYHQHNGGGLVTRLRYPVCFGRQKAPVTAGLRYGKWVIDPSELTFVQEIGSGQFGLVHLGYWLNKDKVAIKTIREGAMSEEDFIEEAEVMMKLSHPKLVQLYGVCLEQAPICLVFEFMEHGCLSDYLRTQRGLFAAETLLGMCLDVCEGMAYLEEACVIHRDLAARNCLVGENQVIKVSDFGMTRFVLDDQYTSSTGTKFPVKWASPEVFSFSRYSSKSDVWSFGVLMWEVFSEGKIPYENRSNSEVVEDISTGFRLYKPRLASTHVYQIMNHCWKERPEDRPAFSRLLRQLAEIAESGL

Cc1cc2nc(NCCCO)n(CC(=O)c3cc(C(C)(C)C)c(O)c(C(C)(C)C)c3)c2cc1C
inactive: [1] 91% | [2] 75% | DMPK2 72% | EPHB2 96% | GCN2(Kin.Dom.2,S808G) 95% | [3] 100% | PRKCE 64% | [4] 100% | ZAP70 70%

Source: PubChem BioAssay AID1982 (Sanford-Burnham Center for Chemical Genomics, 2009)
